Measurements published in ChEMBL document CHEMBL4725331, “An investigative study of antitumor properties of a novel thiazolo[4,5-d]pyrimidine small molecule revealing superior antitumor activity with CDK1 selectivity and potent pro-apoptotic properties” (Bioorg Med Chem, 2020).
pIC50: −log10 of the molar value.

What was measured:
[1] = biological target: Cyclin-dependent kinase 1/cyclin B1 (Homo sapiens, UniProt P06493); assay: Inhibition of CDK1/cyclinB (unknown origin); type: protein-complex assay
[2] = test system: SK-MEL-2; assay: Antiproliferative activity against human SK-MEL-2 cells assessed as inhibition of cell growth at 10 uM measured after 48 hrs by SRB assay relative to control; type: functional
[3] = test system: SNB-75; assay: Antiproliferative activity against human SNB-75 cells assessed as inhibition of cell growth measured after 48 hrs by SRB assay; type: functional
[4] = test system: NCI-H522; assay: Antiproliferative activity against human NCI-H522 cells assessed as inhibition of cell growth measured after 48 hrs by SRB assay; type: functional
[5] = test system: KM12; assay: Antiproliferative activity against human KM12 cells assessed as inhibition of cell growth at 10 uM measured after 48 hrs by SRB assay relative to control; type: functional
[6] = test system: HCT-116; assay: Induction of apoptosis in human HCT116 cells assessed as decrease in Bcl2 gene expression by RT-PCR analysis relative to untreated control; type: functional
[7] = test system: U-251; assay: Antiproliferative activity against human U-251 cells assessed as inhibition of cell growth measured after 48 hrs by SRB assay; type: functional
[8] = test system: TK-10; assay: Antiproliferative activity against human TK-10 cells assessed as inhibition of cell growth measured after 48 hrs by SRB assay; type: functional
[9] = test system: HCT-116; assay: Induction of apoptosis in human HCT116 cells assessed as up regulation of cytochrome C expression by RT-PCR analysis relative to untreated control; type: functional
[10] = test system: HCC 2998; assay: Antiproliferative activity against human HCC 2998 cells assessed as inhibition of cell growth at 10 uM measured after 48 hrs by SRB assay relative to control; type: functional
[11] = test system: WI-38; assay: Induction of apoptosis in human WI-38 cells assessed as late apoptotic cells at IC50 incubated for 48 hrs by annexin-V FITC and propidium iodide staining based flow cytometry analysis (reference value: 0.29 %); type: cell-based; conditions: wi-38, 48 h
[12] = test system: Malme-3M; assay: Antiproliferative activity against human Malme-3M cells assessed as inhibition of cell growth measured after 48 hrs by SRB assay; type: functional
[13] = test system: UO-31; assay: Antiproliferative activity against human UO-31 cells assessed as inhibition of cell growth measured after 48 hrs by SRB assay; type: functional
[14] = test system: SK-OV-3; assay: Antiproliferative activity against human SK-OV-3 cells assessed as inhibition of cell growth measured after 48 hrs by SRB assay; type: functional
[15] = test system: WI-38; assay: Cell cycle arrest in human WI-38 cells assessed as accumulation in S phase phase at IC50 concentration incubated for 48 hrs by propidium iodide staining based flow cytometry analysis (reference value: 33.8 %); conditions: wi-38, 48 h
[16] = test system: HCT-116; assay: Induction of apoptosis in human HCT116 cells assessed as up regulation of caspase-3 expression by RT-PCR analysis relative to untreated control; type: functional
[17] = test system: 786-0; assay: Antiproliferative activity against human 786-0 cells assessed as inhibition of cell growth measured after 48 hrs by SRB assay; type: functional
[18] = test system: M14; assay: Antiproliferative activity against human M14 cells assessed as inhibition of cell growth measured after 48 hrs by SRB assay; type: functional
[19] = test system: SN12C; assay: Antiproliferative activity against human SN12C cells assessed as inhibition of cell growth measured after 48 hrs by SRB assay; type: functional
[20] = read-out: LC50 (the source's name)

Cyclin-dependent kinase 1/cyclin B1, sequence (P06493 whole entry): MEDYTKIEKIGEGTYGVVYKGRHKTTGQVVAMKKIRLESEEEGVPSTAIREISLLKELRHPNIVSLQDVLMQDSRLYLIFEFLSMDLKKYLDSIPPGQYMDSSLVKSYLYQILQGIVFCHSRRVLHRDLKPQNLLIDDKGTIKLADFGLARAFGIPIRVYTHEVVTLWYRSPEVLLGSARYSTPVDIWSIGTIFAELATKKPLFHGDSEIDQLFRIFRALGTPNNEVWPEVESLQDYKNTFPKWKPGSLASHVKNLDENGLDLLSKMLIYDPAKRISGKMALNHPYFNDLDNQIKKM
Cyclin-dependent kinase 1/cyclin B1, sequence (P14635 whole entry, further chain): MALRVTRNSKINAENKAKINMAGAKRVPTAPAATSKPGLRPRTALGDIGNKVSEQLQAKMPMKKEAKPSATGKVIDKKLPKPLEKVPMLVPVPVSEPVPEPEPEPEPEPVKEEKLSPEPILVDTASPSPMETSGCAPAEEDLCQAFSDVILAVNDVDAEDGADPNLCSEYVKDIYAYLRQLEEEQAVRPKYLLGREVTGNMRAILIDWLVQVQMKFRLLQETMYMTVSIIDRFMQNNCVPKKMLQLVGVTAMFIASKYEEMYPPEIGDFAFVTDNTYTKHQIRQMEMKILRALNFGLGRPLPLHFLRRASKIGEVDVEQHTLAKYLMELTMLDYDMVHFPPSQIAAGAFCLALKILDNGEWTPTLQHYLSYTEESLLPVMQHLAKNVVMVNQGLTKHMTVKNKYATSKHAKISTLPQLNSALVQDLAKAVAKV

For COc1ccc(-n2c(=S)sc3c(Cl)nc(C)nc32)c(OC)c1, the pIC50 [1] was 7.01, the inhibition at 10 µM [2] was over 50% and the GI50 [3] was 1.95 µM. The TGI [3] was 4.27 µM, the CC50 [3, 20] was 9.33 µM and the GI50 [4] was 1.82 µM. The TGI [4] was 3.89 µM, the CC50 [4, 20] was 8.32 µM and the inhibition at 10 µM [5] was over 50%. The “fold change (FC)” value [6] was 3.64, the GI50 [7] was 1.91 µM and the TGI [7] was 3.63 µM. The CC50 [7, 20] was 6.92 µM, the GI50 [8] was 4.68 µM and the TGI [8] was 18.6 µM. For the same compound, the CC50 [8, 20] was 58.9 µM, the “fold change (FC)” value [9] was 8.02 and the inhibition at 10 µM [10] was over 50%. It also gave an Activity [11] of 2.99%, a GI50 [12] of 2.24 µM and a TGI [12] of 6.17 µM. The CC50 [12, 20] was 27.5 µM, the GI50 [13] was 3.63 µM and the TGI [13] was 15.5 µM. It also gave a CC50 [13, 20] of 39.8 µM, a GI50 [14] of 14.1 µM and a TGI [14] of 27.5 µM. For the same compound, the CC50 [14, 20] was 52.5 µM, the Activity [15] was 26.39% and the “fold change (FC)” value [16] was 11.2. For the same compound, the GI50 [17] was 4.47 µM, the TGI [17] was 20.4 µM and the CC50 [17, 20] was 81.3 µM. For the same compound, the GI50 [18] was 1.86 µM, the TGI [18] was 4.07 µM and the CC50 [18, 20] was 8.91 µM. It also gave a GI50 [19] of 2.82 µM, a TGI [19] of 9.12 µM and a CC50 [19, 20] of 36.3 µM.
